Biological target: T1, Cytochrome P450 1B1 (Homo sapiens, UniProt Q16678)
T1 sequence (Q16678 whole entry): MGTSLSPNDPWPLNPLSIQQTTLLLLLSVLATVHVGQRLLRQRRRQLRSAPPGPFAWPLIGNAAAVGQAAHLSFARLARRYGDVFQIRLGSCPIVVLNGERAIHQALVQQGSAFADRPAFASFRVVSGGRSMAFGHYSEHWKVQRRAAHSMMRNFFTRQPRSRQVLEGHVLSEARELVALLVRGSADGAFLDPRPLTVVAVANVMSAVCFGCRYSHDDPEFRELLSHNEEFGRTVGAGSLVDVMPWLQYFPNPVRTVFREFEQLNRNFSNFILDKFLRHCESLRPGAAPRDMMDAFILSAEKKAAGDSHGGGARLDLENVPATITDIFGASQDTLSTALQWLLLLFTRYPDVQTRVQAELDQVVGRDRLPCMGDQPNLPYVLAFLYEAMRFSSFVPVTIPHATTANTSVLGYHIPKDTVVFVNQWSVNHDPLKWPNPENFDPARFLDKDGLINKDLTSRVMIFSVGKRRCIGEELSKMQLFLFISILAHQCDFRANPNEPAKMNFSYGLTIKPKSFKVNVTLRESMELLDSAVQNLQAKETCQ
Test: EROD Assay
Conditions: pH 8; 37 °C
Text: The ethoxyresorufin-O-deethylase (EROD) assay is used to test the activity of CYP1B1.

Structure (SMILES) | Ki [nM]
Oc1ccc(/C=C/c2cc(O)cc(O)c2)cc1 [5-[(E)-2-(4-hydroxyphenyl)ethenyl]benzene-1,3-diol] | 177
Oc1cc(O)cc(/C=C/c2ccccc2)c1 [(E)-5-(2-phenylethenyl)-1,3-benzenediol] | 74.3
Oc1cc(O)cc(/C=C/c2ccc(F)cc2)c1 [Stilbene, 8f] | 323
Oc1cc(O)cc(/C=C/c2ccoc2)c1 [Stilbene, 15f] | 1110
Oc1cc(O)cc(/C=C/c2ccsc2)c1 [Stilbene, 16f] | 1180

Source: BindingDB's records for doi:10.1016/j.chembiol.2007.05.004 (University of Tokyo, 2007)
